Results as given in patent US20160089346A1, “METHOD OF TREATMENT FOR BODY CONTOURING” (Neothetics, Inc., priority 2014, published 2016).

What was measured:
[1] = tested on: central abdominal bulging due to excess subcutaneous fat; test: Phase 2 RESET trial: abdominal circumference by laser-guided tape measure, and calculated abdominal volume; assay type: in vivo, human; details: 0.4 μg total weekly dose
Method: (§1) Methods: A randomized, double-blind, placebo-controlled study was conducted to evaluate the safety and efficacy of a composition comprising the long-acting beta-2 receptor agonist salmeterol xinafoate. This study was reviewed and approved by a central IRB (Chesapeake IRB, Columbia, Md.) and written informed consent was received from all study subjects. The study enrolled 513 adult subjects with central abdominal bulging at 31 investigative sites across the U.S. Subjects were required to be non-obese (BMI<30 kg/m^2), have a focal area of central abdominal bulging due to excess subcutaneous fat (˜400 cm^2 area around the umbilicus), have adequate skin elasticity, have at least a rating of “slight bulge, not flat” on both the 5-point Patient- and Clinician-Global Abdominal Perception Scales (P-GAPS and C-GAPS) at Screening and Day 1, and who were at least slightly dissatisfied with their abdominal bulging in the treatment area. The P-GAPS includes the ratings: flat, almost flat, slight bulge/not flat, […].
(§2) Subjects were randomized to receive 1 of 3 doses of salmeterol xinafoate (0.4, 1.0, or 4.0 μg total weekly dose) or placebo (0.9% Sodium Chloride Injection, USP) once a week for 8 weeks starting on Day 1 after all entry criteria had been satisfied. Randomization was based on a computer-generated, site-based randomization schedule, which was distributed to authorized, unblinded personnel at each site. Twenty, 1 mL weekly subcutaneous (SC) injections administered via a ½ inch 30 gauge needle were spaced 4 cm apart on the anterior abdomen between axial planes at +35 mm and −70 mm, relative to the umbilicus. Consistent injection placement was assured by the weekly application of a water-based temporary tattoo defining the location of the 20 administration injection sites. Efficacy endpoints included a Patient- and Clinician-Global Abdominal Perception Scale, a Patient and Clinician Photonumeric Scale (PPnS and CPnS) and duplicate abdominal circumference measurements (taken at +35 mm, 0 and −70 mm, relative to the umbilicus, using a standardized tape measurement (e.g., laser-guided) procedure).
A specific set of standardized instructions (e.g., patient positioning, posture, breathing, etc.) were followed for the collection of all ratings and measurements. Designated clinical site personnel were trained in person to perform each procedure; some procedures also included a training video. […] Specific to the laser-guided tape measure procedure, the reproducibility of the procedure beyond what is obtained with a standard manual tape measure was enhanced with the water-based tattoo on the anterior abdomen, a self-tensioning tape measure, a tripod-mounted laser level and electronic data capture to ensure the independent recording of circumferential measurements. Both the 5-point patient and clinician verbal scales (P-GAPS and C-GAPS) that assigned scores ranging from flat to big (or pronounced) bulge, as well as the 6-point patient and clinician photonumeric scales (PPnS and CPnS) that are a match-to-sample task in which an abdominal profile are selected from a series of 6 identical torsos with a progressively larger anterior abdominal bulge were specifically developed and validated to assess treatment effects in non-obese subjects with central abdominal bulging. Neither patients nor clinicians had access to the others' scale ratings and neither had access to previous scale scores. Final assessments on all outcome measures were performed 1 week after the last injections (Day 57±2 days).
All efficacy analyses used a repeated measures analysis of covariance (ANCOVA) model to determine differences between each active treatment group and placebo. […]

[2] = tested on: central abdominal bulging due to excess subcutaneous fat; test: Phase 2 RESET trial: patient and clinician rating scales (P-GAPS, C-GAPS, PPnS, CPnS), composite responders; assay type: in vivo, human; details: 0.4 μg total weekly dose
Method: as §1, §2
A specific set of standardized instructions (e.g., patient positioning, posture, breathing, etc.) were followed for the collection of all ratings and measurements. Designated clinical site personnel were trained in person to perform each procedure; some procedures also included a training video. […] Specific to the laser-guided tape measure procedure, the reproducibility of the procedure beyond what is obtained with a standard manual tape measure was enhanced with the water-based tattoo on the anterior abdomen, a self-tensioning tape measure, a tripod-mounted laser level and electronic data capture to ensure the independent recording of circumferential measurements. […]

[3] = tested on: non-obese adult subjects with central abdominal bulging; test: Phase 2 RESET trial: adverse effects and tolerability; assay type: in vivo, human; details: for Any Adverse Event Definitely or Possibly Related to Study Drug (incidence): 20 SC injections once a week for 8 weeks
Method: as §1, §2
Demographics & Safety Results: Subjects enrolled in the study were primarily female (81%; 418/513), white (86%; 440/513), with a mean age of 38 (18−71) years and a mean BMI of 23.4 (18.2−29.9) kg/m^2. […] Ninety-two percent completed the study per protocol; 6 subjects (1%) were lost to follow-up, 4 subjects (<1%) were terminated for protocol violation, 10 subjects (2%) withdrew consent and 21 subjects (4%) withdrew for miscellaneous causes. […] The most frequently reported treatment-emergent adverse effects related to study drug were mild and transient injection site events, including hematoma, erythema, contusion, and pain. The incidence of these adverse effects is reported in Table 1 (a single incidence (<1%) of an adverse event was reported randomly across organ systems and all treatment groups and is not reported in the table). These injection site events occurred with a similar frequency in subjects in the placebo group and in the salmeterol xinafoate groups and were considered to be related to the typical mechanical trauma of an injection procedure rather than the study drug itself.

[4] = compared with albuterol, a short-acting hydrophilic beta-adrenergic agonist; cited from earlier work
[5] = subjects weight neutral or lost weight (≦0 kg)

## OCc1cc(C(O)CNCCCCCCOCCCCc2ccccc2)ccc1O (stereo not shown) [salmeterol xinafoate]
[1]; Day 57, all subjects, +35 mm to −70 mm relative to the umbilicus, placebo −90 mL, p=0.001
  Change in abdominal volume from baseline: -192 mL
[1]; Day 57, all subjects, placebo −0.7 cm, p=0.001
  Mean change in abdominal circumference at the umbilicus from baseline: −1.6 cm
[1]; all subjects
  Mean reduction in abdominal volume relative to placebo: -102 mL
  Mean reduction in umbilical circumference relative to placebo: −0.9 cm
[1]; [5]
  Mean reduction in abdominal volume from baseline: -329 mL
  Mean reduction in abdominal volume relative to placebo: -175 mL
  Mean reduction in umbilical circumference from baseline: −2.7 cm
  Mean reduction in umbilical circumference relative to placebo: −1.6 cm
[1]; lowest dose, 0.02 μg/mL
  Dose comparison of efficacy across most outcome measures: the most efficacious
[2]
  Change from baseline across all rating instruments (P-GAPS, C-GAPS, PPnS, CPnS): consistent mean reductions from baseline
  Composite responders (2-point improvement on P-GAPS and 2-point improvement on CPnS) compared to placebo: significantly more responders
[2]; all subjects
  % composite responders (1-point improvement on P-GAPS and 2-point improvement on CPnS): 16%
[2]; [5]
  % composite responders (1-point improvement on P-GAPS and 2-point improvement on CPnS): 22%
[3]; 0.4 μg total weekly dose
  Injection Site Erythema (incidence): 2%
  Injection Site Hematoma (incidence): 5%
  Injection Site Hemorrhage (incidence): 0%
  Injection Site Pain (incidence): 3%
  Any Adverse Event Definitely or Possibly Related to Study Drug (incidence): 11%
[3]; 1.0 μg total weekly dose
  Injection Site Erythema (incidence): 2%
  Injection Site Hematoma (incidence): 6%
  Injection Site Hemorrhage (incidence): 0%
  Injection Site Pain (incidence): 2%
  Any Adverse Event Definitely or Possibly Related to Study Drug (incidence): 12%
[3]; 4.0 μg total weekly dose
  Injection Site Erythema (incidence): 0%
  Injection Site Hematoma (incidence): 6%
  Injection Site Hemorrhage (incidence): 0%
  Injection Site Pain (incidence): 2%
  Any Adverse Event Definitely or Possibly Related to Study Drug (incidence): 12%
[3]; 0.4, 1.0 and 4.0 μg total weekly dose, 20 SC injections into abdominal adipose tissue once a week for 8 weeks
  Tolerability: well tolerated
[3]; all dose groups, 8 weeks
  Significant adverse events during the study: no significant adverse events

## OCc1cc(C(O)CNCCCCCCOCCCCc2ccccc2)ccc1O (stereo not shown) [salmeterol]
[4]
  Lipophilicity relative to albuterol: at least 10,000 times
